The record followed here is article doi:10.1101/2024.01.14.575554v1 (biorxiv, 2024).

The target of this test is T1, Hsp60β (Sulfolobus acidocaldarius, UniProt Q9V2T4).
T1 sequence (Q9V2T4 1-553): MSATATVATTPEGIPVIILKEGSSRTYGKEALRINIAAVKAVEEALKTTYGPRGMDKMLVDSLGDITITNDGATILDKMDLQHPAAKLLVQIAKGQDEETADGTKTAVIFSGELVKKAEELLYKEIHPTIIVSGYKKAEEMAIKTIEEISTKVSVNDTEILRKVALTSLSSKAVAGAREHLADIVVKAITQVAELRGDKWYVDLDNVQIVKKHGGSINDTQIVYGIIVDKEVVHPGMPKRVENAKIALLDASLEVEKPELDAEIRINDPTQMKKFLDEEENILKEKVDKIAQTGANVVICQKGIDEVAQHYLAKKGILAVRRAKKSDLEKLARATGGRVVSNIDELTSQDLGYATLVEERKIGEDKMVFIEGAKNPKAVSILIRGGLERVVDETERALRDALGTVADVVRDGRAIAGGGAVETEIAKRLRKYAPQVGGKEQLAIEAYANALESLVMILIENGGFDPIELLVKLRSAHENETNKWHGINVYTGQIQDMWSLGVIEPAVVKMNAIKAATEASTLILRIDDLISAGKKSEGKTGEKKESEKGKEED
The test can be described thus: FRET titration, tryptophan donor to MANT acceptor. Format: binding.

`CNc1ccccc1C(=O)O[C@H]1[C@@H](O)[C@H](n2cnc3c(N)ncnc32)O[C@@H]1CO[P@@](=O)(O)O[P@](=O)(O)OP(=O)(O)O` [MANT-ATP, 2’/3’-(N-methyl-anthraniloyl)-adenosine-5’-triphosphate]: binding was characterised by a dissociation constant (Kd) of 77.2 ± 3.8 µM.
